BindingDB's records for doi:10.1016/s0960-894x(01)00378-x (The R. W. Johnson Pharmaceutical Research Institute, 2001)

Legend:
[1] = In vitro inhibition of human platelet aggregation induced by SFLLRN-NH2 (at a concentration of 2 uM)
[2] = In vitro inhibition of human platelet aggregation induced by alpha-thrombin (at a concentration of 0.15 nM)
[3] = as above; remark: listed apart in the source
[4] = biological target: T1, Proteinase-activated receptor 1 (Homo sapiens, UniProt P25116); experiment: In vitro inhibition of human platelet aggregation induced by SFLLRN-NH2 (at a concentration of 2 uM)
T1 sequence (P25116 whole entry): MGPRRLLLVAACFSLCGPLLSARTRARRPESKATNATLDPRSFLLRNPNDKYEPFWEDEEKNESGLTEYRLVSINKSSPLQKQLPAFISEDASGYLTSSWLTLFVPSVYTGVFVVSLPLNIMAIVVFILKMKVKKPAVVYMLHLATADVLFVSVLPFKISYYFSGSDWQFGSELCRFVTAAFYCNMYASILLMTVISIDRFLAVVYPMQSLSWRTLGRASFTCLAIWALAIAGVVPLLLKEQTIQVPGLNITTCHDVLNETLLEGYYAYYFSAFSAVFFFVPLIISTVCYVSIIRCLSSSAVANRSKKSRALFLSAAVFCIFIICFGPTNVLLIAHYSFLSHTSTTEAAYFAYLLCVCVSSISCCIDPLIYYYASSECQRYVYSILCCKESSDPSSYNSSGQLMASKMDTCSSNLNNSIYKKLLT

[5] = biological target: T1, Proteinase-activated receptor 1; experiment: In vitro inhibition of human platelet aggregation induced by alpha-thrombin (at a concentration of 0.15 nM)

Compound: COc1ccc(C[C@H](NC(=O)Nc2ccc3c(CN4CCCC4)cn(Cc4ccc(F)cc4)c3c2)C(=O)N[C@@H](CCCNC(=N)N)C(=O)NCc2ccccc2)cc1 [2-[2-{3-[1-(4-Fluoro-benzyl)-3-pyrrolidin-1-ylmethyl-1H-indol-6-yl]-ureido}-3-(4-methoxy-phenyl)-propionylamino]-5-guanidino-pentanoic acid benzylamide]
- IC50 [1]: 270 nM
- IC50 [2]: 2320 nM

Compound: COC(=O)c1ccc(Cn2cc(CN3CCCC3)c3ccc(NC(=O)N[C@@H](Cc4ccc(OC)cc4)C(=O)N[C@@H](CCCNC(=N)N)C(=O)NCC4CCCCC4)cc32)cc1 [4-(6-{3-[(S)-1-[(S)-1-(Cyclohexylmethyl-carbamoyl)-4-guanidino-butylcarbamoyl]-2-(4-methoxy-phenyl)-ethyl]-ureido}-3-pyrrolidin-1-ylmethyl-indol-1-ylmethyl)-benzoic acid methyl ester]
- IC50 [3]: 38700 nM

Compound: NCCC(NC(=O)[C@H](Cc1ccc(F)c(F)c1)NC(=O)Nc1ccc2c(CN3CCCC3)cn(Cc3c(Cl)cccc3Cl)c2c1)C(=O)NCc1ccccc1 (stereo partly drawn) [4-Amino-N-benzyl-2-[(S)-2-{3-[1-(2,6-dichloro-benzyl)-3-pyrrolidin-1-ylmethyl-1H-indol-6-yl]-ureido}-3-(3,4-difluoro-phenyl)-propionylamino]-butyramide]
- IC50 [1]: 160 nM
- IC50 [2]: 340 nM

Compound: Cc1ccccc1Cn1cc(CN2CCCC2)c2ccc(NC(=O)N[C@@H](Cc3ccc(C#N)cc3)C(=O)N[C@@H](CCCNC(=N)N)C(=O)NCc3ccccc3)cc21 [(S)-2-((S)-3-(4-Cyano-phenyl)-2-{3-[1-(2-methyl-benzyl)-3-pyrrolidin-1-ylmethyl-1H-indol-6-yl]-ureido}-propionylamino)-5-guanidino-pentanoic acid benzylamide]
- IC50 [1]: 600 nM
- IC50 [2]: 620 nM

Compound: N=C(N)NCCC[C@H](NC(=O)[C@H](Cc1ccc(F)c(F)c1)NC(=O)Nc1ccc2c(CN3CCCC3)cn(Cc3c(Cl)cccc3Cl)c2c1)C(=O)NCc1ccccc1 [(S)-2-[(S)-2-{3-[1-(2,6-Dichloro-benzyl)-3-pyrrolidin-1-ylmethyl-1H-indol-6-yl]-ureido}-3-(3,4-difluoro-phenyl)-propionylamino]-5-guanidino-pentanoic acid benzylamide]
- IC50 [3]: 570 nM

Compound: COc1ccc(C[C@H](NC(=O)Nc2ccc3c(CN4CCCC4)cn(Cc4ccccc4Cl)c3c2)C(=O)N[C@@H](CCCNC(=N)N)C(=O)NCCCc2ccccc2)cc1 [(S)-2-[(S)-2-{3-[1-(2-Chloro-benzyl)-3-pyrrolidin-1-ylmethyl-1H-indol-6-yl]-ureido}-3-(4-methoxy-phenyl)-propionylamino]-5-guanidino-pentanoic acid (3-phenyl-propyl)-amide]
- IC50 [1]: 140 nM
- IC50 [2]: 2600 nM

Compound: COc1ccc(C[C@H](NC(=O)Nc2ccc3c(CN4CCCC4)cn(Cc4ccc(F)cc4)c3c2)C(=O)N[C@@H](CCCNC(=N)N)C(=O)NCCCc2ccccc2)cc1 [(S)-2-[(S)-2-{3-[1-(4-Fluoro-benzyl)-3-pyrrolidin-1-ylmethyl-1H-indol-6-yl]-ureido}-3-(4-methoxy-phenyl)-propionylamino]-5-guanidino-pentanoic acid (3-phenyl-propyl)-amide]
- IC50 [1]: 600 nM
- IC50 [2]: 8500 nM

Compound: COc1ccc(C[C@H](NC(=O)Nc2ccc3c(CN4CCCC4)cn(Cc4ccc(F)cc4)c3c2)C(=O)N[C@@H](CCCNC(=N)N)C(=O)NCC2CCCCC2)cc1 [(S)-2-[(S)-2-{3-[1-(4-Fluoro-benzyl)-3-pyrrolidin-1-ylmethyl-1H-indol-6-yl]-ureido}-3-(4-methoxy-phenyl)-propionylamino]-5-guanidino-pentanoic acid cyclohexylmethyl-amide]
- IC50 [2]: 4400 nM

Compound: NC(N)=NCCCC(NC(=O)C(Cc1ccc([N+](=O)[O-])cc1)NC(=O)Nc1ccc2c(CN3CCCC3)cn(Cc3ccc(F)cc3)c2c1)C(=O)NCc1ccccc1 [(S)-2-[(S)-2-{3-[1-(4-Fluoro-benzyl)-3-pyrrolidin-1-ylmethyl-1H-indol-6-yl]-ureido}-3-(4-nitro-phenyl)-propionylamino]-5-guanidino-pentanoic acid benzylamide]
- IC50 [4]: 130 nM
- IC50 [5]: 6100 nM

Compound: CCN(CC)Cc1cn(Cc2ccccc2C)c2cc(NC(=O)N[C@@H](Cc3ccc(OC)cc3)C(=O)N[C@@H](CCCNC(=N)N)C(=O)NCCCc3ccccc3)ccc12 [(S)-2-[(S)-2-{3-[3-Diethylaminomethyl-1-(2-methyl-benzyl)-1H-indol-6-yl]-ureido}-3-(4-methoxy-phenyl)-propionylamino]-5-guanidino-pentanoic acid (3-phenyl-propyl)-amide]
- IC50 [1]: 230 nM
- IC50 [3]: 3000 nM

Compound: CCN(CC)Cc1cn(Cc2cccc(C)c2)c2cc(NC(=O)N[C@@H](Cc3ccc(OC)cc3)C(=O)N[C@@H](CCCNC(=N)N)C(=O)NCCCc3ccccc3)ccc12 [(S)-2-[(S)-2-{3-[3-Diethylaminomethyl-1-(3-methyl-benzyl)-1H-indol-6-yl]-ureido}-3-(4-methoxy-phenyl)-propionylamino]-5-guanidino-pentanoic acid (3-phenyl-propyl)-amide]
- IC50 [1]: 210 nM
- IC50 [2]: 1300 nM

Compound: CCN(CC)Cc1cn(Cc2ccc(F)cc2)c2cc(NC(=O)N[C@@H](Cc3ccc(OC)cc3)C(=O)N[C@@H](CCCNC(=N)N)C(=O)NCC3CCCCC3)ccc12 [(S)-2-[(S)-2-{3-[3-Diethylaminomethyl-1-(4-fluoro-benzyl)-1H-indol-6-yl]-ureido}-3-(4-methoxy-phenyl)-propionylamino]-5-guanidino-pentanoic acid cyclohexylmethyl-amide]
- IC50 [1]: 900 nM
- IC50 [2]: 11100 nM

Compound: COc1ccc(C[C@H](NC(=O)Nc2ccc3c(CN4CCCCC4)cn(Cc4ccccc4C)c3c2)C(=O)N[C@@H](CCCNC(=N)N)C(=O)NCCCc2ccccc2)cc1 [(S)-5-Guanidino-2-((S)-3-(4-methoxy-phenyl)-2-{3-[1-(2-methyl-benzyl)-3-piperidin-1-ylmethyl-1H-indol-6-yl]-ureido}-propionylamino)-pentanoic acid (3-phenyl-propyl)-amide]
- IC50 [1]: 310 nM
- IC50 [2]: 4800 nM

Compound: COc1ccc(C[C@H](NC(=O)Nc2ccc3c(CN4CCCCC4)cn(Cc4cccc(C)c4)c3c2)C(=O)N[C@@H](CCCNC(=N)N)C(=O)NCC2CCCCC2)cc1 [(S)-5-Guanidino-2-((S)-3-(4-methoxy-phenyl)-2-{3-[1-(3-methyl-benzyl)-3-piperidin-1-ylmethyl-1H-indol-6-yl]-ureido}-propionylamino)-pentanoic acid cyclohexylmethyl-amide]
- IC50 [1]: 900 nM
- IC50 [2]: 11700 nM

Compound: COc1ccc(C[C@H](NC(=O)Nc2ccc3c(CN4CCCCC4)cn(Cc4ccc(OC(F)(F)F)cc4)c3c2)C(=O)N[C@@H](CCCNC(=N)N)C(=O)NCC2CCCCC2)cc1 [(S)-5-Guanidino-2-((S)-3-(4-methoxy-phenyl)-2-{3-[3-piperidin-1-ylmethyl-1-(4-trifluoromethoxy-benzyl)-1H-indol-6-yl]-ureido}-propionylamino)-pentanoic acid cyclohexylmethyl-amide]
- IC50 [2]: 36500 nM

Compound: Cc1ccccc1Cn1cc(CN2CCCC2)c2ccc(NC(=O)NC(Cc3ccc([N+](=O)[O-])cc3)C(=O)NC(CCCNC(=N)N)C(=O)NCc3ccccc3)cc21 [(S)-5-Guanidino-2-[(S)-2-{3-[1-(2-methyl-benzyl)-3-pyrrolidin-1-ylmethyl-1H-indol-6-yl]-ureido}-3-(4-nitro-phenyl)-propionylamino]-pentanoic acid benzylamide]
- IC50 [4]: 150 nM

Compound: NCCCC[C@H](NC(=O)[C@H](Cc1ccc(F)c(F)c1)NC(=O)Nc1ccc2c(CN3CCCC3)cn(Cc3c(Cl)cccc3Cl)c2c1)C(=O)NCc1ccccc1 [(S)-6-Amino-2-[(S)-2-{3-[1-(2,6-dichloro-benzyl)-3-pyrrolidin-1-ylmethyl-1H-indol-6-yl]-ureido}-3-(3,4-difluoro-phenyl)-propionylamino]-hexanoic acid benzylamide]
- IC50 [1]: 100 nM
- IC50 [3]: 700 nM

Compound: O=C(Nc1ccc2c(CN3CCCC3)cn(Cc3c(Cl)cccc3Cl)c2c1)N[C@@H](Cc1ccc(F)c(F)c1)C(=O)NC(Cc1cnc[nH]1)C(=O)NCc1ccccc1 (stereo partly drawn) [(S)-N-[1-Benzylcarbamoyl-2-(3H-imidazol-4-yl)-ethyl]-2-{3-[1-(2,6-dichloro-benzyl)-3-pyrrolidin-1-ylmethyl-1H-indol-6-yl]-ureido}-3-(3,4-difluoro-phenyl)-propionamide]
- IC50 [1]: 200 nM
- IC50 [3]: 460 nM

Compound: CSCCC(NC(=O)[C@H](Cc1ccc(F)c(F)c1)NC(=O)Nc1ccc2c(CN3CCCC3)cn(Cc3c(Cl)cccc3Cl)c2c1)C(=O)NCc1ccccc1 (stereo partly drawn) [N-Benzyl-2-[(S)-2-{3-[1-(2,6-dichloro-benzyl)-3-pyrrolidin-1-ylmethyl-1H-indol-6-yl]-ureido}-3-(3,4-difluoro-phenyl)-propionylamino]-4-methylsulfanyl-butyramide]
- IC50 [1]: 400 nM

Compound: COc1ccc(C[C@H](NC(=O)Nc2ccc3c(CN4CCCC4)cn(Cc4c(Cl)cccc4Cl)c3c2)C(=O)N[C@@H](CCCN=C(N)N)C(=O)NCc2ccccc2)cc1 [RWJ-54003]
- IC50 [5]: 900 nM
